Results on one compound are retold here after US4060524A, “6-Acylamido-2,2-dimethyl-3-(pyrimidin-4,6-dione-2-yl)penams” (Pfizer Inc., priority 1976, dated 1977).

Each structure is given as a SMILES string. Converted amounts (≈) assume the structure as drawn.

Common to all, as to test: in vitro MIC, two-fold serial dilution in brain-heart infusion medium
Common to all, as to assay type: cell-based

The test system of test [1] is Pasteurella multocida 59A001. Here is the method:
(§1) The in vitro activity of the herein-described compounds renders them useful for topical application in the form of ointments, creams and the like, or for sterilization purposes, e.g., sickroom utensils. For topical application, the dosage level is on the order of from about 10 to 200 mg./kg./day.
(§2) The in vitro (MIC) values for 6-(phenylacetamido)-2,2-dimethyl-3-(pyrimidin-4,6-dione-2-yl)penam against several organisms is presented below: […]

Test [2] relates to Staphylococcus aureus 01A099. Here is the method: as §1, §2
Test [3] relates to Staphylococcus aureus 01AA005. The method, then:
as §1, §2

For test [4], the system named is Streptococcus pyogenes 02C203. Here is the method: as §1, §2

For orientation: MIC means the lowest concentration that inhibits growth of the organism. Low values mean a more susceptible organism, high ones a less susceptible organism. With `CC1(C)S[C@@H]2[C@H](NC(=O)Cc3ccccc3)C(=O)N2[C@H]1C1=NC(=O)CC(=O)N1` [6-Phenylacetamido-2,2-dimethyl-3-(pyrimidin-4,6-dione-2yl)penam], the MIC in test [1] amounted to 50 µg/mL (≈ 125 µM); in test [2], 50 µg/mL (≈ 125 µM); in test [3] it was 50 µg/mL (≈ 125 µM); in test [4], 3.12 µg/mL (≈ 7.79 µM).
